# Experimental data reported in paper PMC4015918, “Conjugation to a SMAC mimetic potentiates sigma-2 ligand induced tumor cell death in ovarian cancer” (Molecular Cancer, 2014).
# How the values were obtained:
# [1] = target: T1, sigma-1 receptor (Cavia porcellus, UniProt Q60492); experiment: Sigma-1 receptor binding, [3H](+)-pentazocine displacement in guinea pig brain membrane homogenates; details: inhibiting binding of [3H](+)-pentazocine to guinea pig brain homogenates; mean ± S.E.M., at least three experiments
# T1 construct: guinea pig brain (sigma-1 assay) or rat liver (sigma-2 assay) membrane homogenates; from tissue; host or cells: guinea pig brain membrane homogenate
# Protocol: The sigma-1 and sigma-2 receptor binding affinities of SW IV-134 were determined as previously described. Briefly, guinea pig brain (sigma-1 assay) or rat liver (sigma-2 assay) membrane homogenates (~300 μg protein) were diluted with 50 mM Tris-HCl, pH 8.0 and incubated with the radioligand {~5 nM [^3H](+)-pentazocine (34.9 Ci/mmol; sigma-1 assay) or ~5 nM [3H](+)-DTG (58.1 Ci/mmol; sigma-2 assay)} and SW IV-134 with concentrations ranging from 0.1 nM to 10 μM in a total volume of 150 μL in 96-well plates at 25°C. […] Each filter was washed three times with 200 μL of ice-cold wash buffer, and the bound radioactivity quantified using a Wallac 1450 MicroBeta liquid scintillation counter (Perkin Elmer, Boston, MA). Nonspecific binding was determined in the presence of 10 μM cold haloperidol. […]
# Table S1. […] The sigma-1 and sigma-2 receptor binding affinities of S W I V-134 were determined as previously described (22). For details see also the Materials and Methods section. a Mean ± S .E .M .K i values were determined by at least three ex periments. b Ki for inhibiting the binding of [ 3H] […]
# [2] = system: ovarian cancer cell lines (SKOV3, OVCAR3, HEY A8, HEY A8 MDR); experiment: Cell viability (CellTiter-Glo) in a panel of four ovarian cancer cell lines; format: cell-based; details: increasing doses, 18 hours
# Protocol: (A) SKOV3, (B) OVCAR3 (C) HEY A8 and (D) HEY A8 MDR cells were treated with increasing doses of SW43, SW IV-52, SW43 plus SW IV-52, and SW IV-134 for 18 hours. Cell viability was determined by CellTiter-Glo assays [p < 0.015 (A), NS (B), p < 0.017 (C), p < 0.034 (D), one-way ANOVA].
# Cells (1 × 10^4) were seeded into 96 well plates. Treatment as described in the figure legends was initiated the following day. Cell viability was determined 18 hours after treatment using CellTiter-Glo Luminiscent Viability Assay (Promega, Madison, WI). Data were recorded with a SpectraMax Gemini microplate spectrofluorometer, Molecular Devices (Silicon Valley, CA).
# [3] = Adverse effects after 3 weeks of intraperitoneal treatment: necropsy, complete blood count, serum chemistries; format: in vivo, SCID mice; details: for Peritonitis at necropsy: also seen in vehicle treated mice
# Protocol: In vivo experiments were conducted with 15 mice per treatment group. Treatment involved daily intraperitoneal injections with 90 μL of SW43 (7.5 mM stock), SW IV-134 (7.5 mM stock), or vehicle-only (25% cremophor in H2O) for 3 weeks. Tumor burden was monitored by bioluminescence imaging once a week during the treatment period. At the end of the treatment, 5 mice were randomly removed per treatment group and submitted for necropsy to the Washington University Department of Comparative Medicine. Blood samples were collected by intracardiac withdrawal prior to necropsy for chemistry and hematology work-up. In addition, various key organs were harvested for gross and histopathological examination. The remaining 10 mice from each treatment group were followed over time to examine overall survival. For survival studies, actual death or poor physical condition/large tumor size meeting criteria for euthanasia, constituted a death event.
# Supplementary file 1476-4598-13-50-S6.pdf: Additional file 6: Table S2 Complete blood count and serum chemistries for severe combined immunodeficient (SCID) mice treated with SW IV-134, SW43, and vehicle control. SCID mice were treated daily with intra-peritoneal injections of SW IV-134, SW43, and vehicle control for 3 weeks. At the end of treatment, blood was collected from mice in each treatment group and analyzed for hemoglobin, white blood count, and platelets. Serum chemistries were also obtained to determine the levels of liver enzymes aspartate aminotransferase (AST) and alanine aminotransferase (ALT), renally cleared metabolites blood urea nitrogen (BUN) and creatinine, as well as total protein and glucose. The mice treated with SW134 were noted to have a statistically significant decrease in hemoglobin and an increase in white blood count compared to those treated with SW43 or vehicle control. Click here for file […]
# Table S2: Complete b l o od count and ser um chemistries f or SCI D mice treated with SW IV-134, SW43, and vehicle. SC ID m ic e were treated daily with intra- peritoneal injections of SW 134, SW 43, and vehicle control fo r 3 weeks. At the end of treatment, bloo d was co lle ct ed from mice in each treatment gro up and analyzed for hemoglobin, w hit e bloo d co un t , and plate lets. S e r um chemistries were also obtained to determine the levels of l iv e r enzymes as pa rt at e aminotransferase ( A ST ) and alanine aminotransferase (ALT), renally cleared metabolites blood urea nitrogen ( BUN) and creatinine, as well as tot al protein a nd gl uco s e. The mice treated w it h SW IV- 134 were no te d to have a statistically significant decrease in hemoglobin and an increase in w hit e bloo d co u nt compared to those treated with SW43 or vehicle control.
# [4] = SCID mice, daily i.p. 3 weeks, end of treatment
# T1 sequence (Q60492 whole entry): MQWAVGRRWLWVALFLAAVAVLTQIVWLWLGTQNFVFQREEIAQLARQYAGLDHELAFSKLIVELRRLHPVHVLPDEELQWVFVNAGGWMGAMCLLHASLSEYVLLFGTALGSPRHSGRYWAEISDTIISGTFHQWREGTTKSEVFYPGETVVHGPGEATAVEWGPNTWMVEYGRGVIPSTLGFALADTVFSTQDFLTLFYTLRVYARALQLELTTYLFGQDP
Compound,Ki [1] [nM],Killing activity (cell viability) [2],"ALT, mean [3, 4] [u/L]","BUN, mean [3, 4] [mg/dL]","Creatinine, mean [3, 4] [mg/dL]","Hemoglobin, mean [3, 4] [g/dL]","Total bilirubin, mean [3, 4] [mg/dL]","Total protein, mean [3, 4] [g/dL]","WBC, mean [3, 4]",Peritonitis at necropsy ([3]; i.p. daily for 3 weeks),"AST, mean [3, 4] [u/L]","Glucose, mean [3, 4] [mg/dL]","Platelet, mean [3, 4]",Splenomegaly ([3]; i.p. daily for 3 weeks)
"COc1ccc(C)cc1NC(=O)OC1CC2CCCC(C1)N2CCCCCCCCCCN (stereo not drawn) [SW43, reference compound]",134 ± 11.9,effective against different ovarian cancer cell lines,56.0,22.3,0.3,11.7,0.1,5.8,3.2 103 /µl,mild to moderate peritonitis,,,,
COc1ccc(C)cc1NC(=O)OC1CC2CCCC(C1)N2CCCCCCCCCCN[C@@H](C)C(=O)N[C@H](C(=O)N1CCC[C@H]1C(=O)N[C@@H]1CCCc2ccccc21)C(C)(C)C (stereo partly drawn) [SW IV-134],5740 ± 476,greater cytotoxicity,84.0,24.8,0.4,9.5,0.1,6.0,19.3 103 /µl,mild to moderate peritonitis,91.4,103.6,1063.8 103 /µl,mild splenomegaly
